Assay results published in publication PMC11859423, “Fluorescent Probes to Image the KCa3.1 Channel in Tumor Cells” (Pharmaceutics, 2025).
Entries after “also recorded” stand apart in the source; their conditions may differ.

Assays:
Type in all cases: cell-based
[1] = target: T1, KCa3.1 channel in A549-3R cells (Homo sapiens, UniProt O15554); experiment: Staining of living A549-3R cells (Protocol 2)
T1 construct: the non-small cell lung cancer cell line A549-3R with a high expression of the KCa3.1 channel was employed; endogenous in cells; host or cells: A549-3R cells
Procedure: The cells were used without fixation. After incubation of the cells for 24 h (Section 2.10.1), the medium was removed, and the cells were washed three times with 1 mL of PBS. […]
An Axiovert 200 inverted microscope (Carl Zeiss AG, Jena, Germany) with a ×100 oil immersion objective and a digital camera (SPOT RT SE from Diagnostic Instruments Inc., Livingston, UK) were used. The camera was controlled by MetaVue software (version 6.3r6, Visitron, Germany). Two different filter sets were employed, the FITC filter set (Carl Zeiss Filter Set 10 bandwidth excitation filter 450–490, color splitter 510, bandpass filter 515–565) and the TRITC filter set (Carl Zeiss Filter Set 15, bandpass excitation filter 546/12, dichroic mirror 580, emission filter Long Pass 590).
Using the free imaging software ImageJ (1.53f51, NIH, USA), squares with an edge length of 50 × 50 pixels, corresponding to an area of 9 µm^2, were randomly placed in a cell and signals with Full Width at Half Maximum (FWHM) of ≤5 pixels (~300 nm) were counted as a KCa3.1 channel. For the evaluation, 7 squares were analyzed.
In the next experiment, living A549-3R cells were stained with 10b.

[2] = target: T1, KCa3.1 channel in A549-3R cells; experiment: Staining of permeabilized A549-3R cells (Protocol 5)
Procedure: After fixation of the cells (Section 2.10.2), 1 mL of permeabilization solution was added to the glass bottom dish. The cells were incubated for 30 min at 4 °C and afterwards washed three times with PBS. Subsequently, Protocol 1 was performed.
The specificity of the bodipy-labeled senicapoc derivative 10b was further analyzed via conducting co-staining experiments with antibodies. For staining with antibodies, A549-3R cells had to be permeabilized with saponin, since the antibody binds at the intracellular part of the ion channel only after entering the cell. […] For antibody-based immunofluorescence staining of the KCa3.1 channels of permeabilized A549-3R cells, various concentrations of the primary and secondary antibody were tested. Optimal images were obtained with a dilution of 1:300 for the primary antibody and 1:500 for the secondary antibody (see Figure S13, Supplementary Materials). The images obtained by immunofluorescence staining were analyzed as described above for the images with fluorescent probe 10b. This analysis led to a FWHM of 4.80 ± 0.83 pixels and a density of 1.75 ± 0.19 KCa3.1 channels/µm^2. […]

[3] = target: T1, KCa3.1 channel in A549-3R cells; experiment: Whole-cell patch clamp on A549-3R cells after channel opening with 1-EBIO
Procedure: Bath solution: 140 mM NaCl, 5 mM KCl, 10 mM HEPES, 1 mM MgCl2 and 1 mM CaCl2 in an aqueous solution; pH = 7.4 with NaOH.
Pipette solution: 140 mM KCl, 10 mM HEPES, 1.3 mM EGTA, 1 mM MgCl2 and 1.217 mM CaCl2 in an aqueous solution; pH = 7.4 with NaOH; free Ca^2+ concentration of 1 µM.
1-EBIO solution: 100 mM stock solution of 1-ethylbenzimidazolone (1-EBIO) in DMSO was diluted with the bath solution to 50 µM.
Test solution: A 10 mM stock solution of imaging compound 10b in DMSO was diluted with the bath solution to 1 µM.
Senicapoc solution: 10 mM stock solution of senicapoc (3) in DMSO was diluted with bath solution to 1 µM.
Whole-cell patch clamp experiments were conducted at room temperature using borosilicate glass pipettes (GC150TF-10, Harvard Ltd., Boston, MA, USA) connected to an EPC-10 amplifier (HEKA Electronics, Lambrecht, Germany). […] Current density was calculated by dividing the current amplitude determined at the end of the depolarization voltage ramp to +60 mV by the membrane capacitance obtained from the slow capacitance compensation. The calculated free Ca^2+ concentration of the pipette solution was 1 µmol/L to obtain full activation of the KCa channels during the patch clamp experiments. […] A multi-barreled application pipette with a tip diameter of ~100 µm was used for test solution applications close to the recorded cell. […]

[4] = living A549-3R cells, Protocol 2

CCC1=C(C)C2=C(c3ccc(OCCOCCn4cc(COc5ccc(C(C(N)=O)(c6ccccc6)c6ccc(F)cc6)cc5)nn4)cc3)c3c(C)c(CC)c(C)n3[B-](F)(OC)[N+]2=C1C (stereo not shown) [10b, 2-{4-[(1-{2-[4-(2,6-Diethyl-4-fluoro-4-methoxy-1,3,5,7-tetramethyl-4-bora-3a,4a-diaza-s-indacen-8-yl)phenoxy]ethoxyethyl}-1,2,3-triazol-4-yl)methoxy]phenyl}-2-(4-flluorophenyl)-2-phenylacetamide]
staining pattern of living A549-3R cells ([1]; Protocol 2, 10 µM, 10 min, 4 °C): distinct punctate staining pattern | FWHM of fluorescent dots [1, 4]: 4.89 ± 0.50 pixels | density of labeled KCa3.1 channels [1, 4]: 1.11 ± 0.11 KCa3.1 channels per µm^2 | density of labeled KCa3.1 channels ([2]; permeabilized A549-3R cells): 1.15 ion channels/µm^2 | staining pattern of permeabilized A549-3R cells ([2]; saponin permeabilization, Protocol 5): expected punctate staining pattern | inhibitory activity compared with senicapoc ([3]; 1 µM each, channel opened with 1-EBIO): only slightly lower than the inhibitory activity of senicapoc | inhibition of the KCa3.1 ion channel current ([3]; 1 µM, channel opened with 50 µM 1-EBIO, whole A549-3R cells): inhibited the ion channel considerably; also recorded: inhibited the ion current
